Test results: ChEMBL document CHEMBL1201862, “PubChem BioAssay data set” (2004)
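96-well plates; 48 h exposure; 5 concentrations. Endpoints by linear interpolation between flanking doses. Not reached: highest tested concentration assigned. At the GI50, growth is halved.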 Active and inactive are the calls of the source. Cut-off read from the data, not from the text of the source: active = GI50 up to about 1.1 µM and inactive = higher.

Columns and labels:
Assay in all cases: NCI-60 cell line screen, 48 h
[1] = tested on: M14
[2] = tested on: MDA-N
[3] = tested on: SF-539
[4] = tested on: OVCAR-4
[5] = tested on: UO-31
[6] = tested on: SNB-19
[7] = tested on: PC-3
[8] = tested on: A498
[9] = tested on: EKVX
[10] = tested on: OVCAR-5
[11] = tested on: U-251
[12] = tested on: NCI-H226
[13] = tested on: COLO 205
[14] = tested on: MCF7
[15] = tested on: DU-145
[16] = tested on: MDA-MB-231
[17] = tested on: HCC 2998
[18] = tested on: SK-OV-3
[19] = tested on: HL-60
[20] = tested on: SR

Structure (SMILES)	GI50 [1]	GI50 [2]	GI50 [3]	GI50 [4]	GI50 [5]	GI50 [6]	GI50 [7]	GI50 [8]	GI50 [9]	GI50 [10]	GI50 [11]	GI50 [12]	GI50 [13]	GI50 [14]	GI50 [15]	GI50 [16]	GI50 [17]	GI50 [18]	GI50 [19]	GI50 [20]
O=C(O)c1ccc(C(=O)c2ccccc2C(=O)O)cc1C(=O)O	> 100 µM (inactive)	> 100 µM (inactive)	> 100 µM (inactive)	> 100 µM (inactive)	> 100 µM (inactive)	> 100 µM (inactive)	> 100 µM (inactive)	> 100 µM (inactive)	> 100 µM (inactive)	> 100 µM (inactive)	> 100 µM (inactive)	> 100 µM (inactive)	> 100 µM (inactive)	> 100 µM (inactive)	> 100 µM (inactive)	> 100 µM (inactive)	> 100 µM (inactive)	> 100 µM (inactive)	> 76.9 µM (inactive)	> 100 µM (inactive)
Oc1cccc2c(Br)ccnc12	1.98 µM (inactive)	5.71 µM (inactive)	3.63 µM (inactive)	2.55 µM (inactive)	2.84 µM (inactive)	7.71 µM (inactive)	4.17 µM (inactive)	7.82 µM (inactive)	2.88 µM (inactive)	6.08 µM (inactive)	2.28 µM (inactive)	7.1 µM (inactive)	11.2 µM (inactive)	4.43 µM (inactive)	3.89 µM (inactive)	2.75 µM (inactive)	14.7 µM (inactive)	26.7 µM (inactive)	0.181 µM (active)	0.378 µM (active)
COP(=O)(OC)C1=c2c(C)noc2=C2C=COC2C1=O (centres undefined)	> 100 µM (inactive)	> 100 µM (inactive)	> 100 µM (inactive)	> 100 µM (inactive)	> 100 µM (inactive)	> 100 µM (inactive)	> 100 µM (inactive)	> 100 µM (inactive)	> 100 µM (inactive)	> 100 µM (inactive)	> 100 µM (inactive)	> 100 µM (inactive)	> 100 µM (inactive)	> 100 µM (inactive)	> 100 µM (inactive)	56.1 µM (inactive)	> 100 µM (inactive)	> 100 µM (inactive)	> 100 µM (inactive)	> 100 µM (inactive)
C[C@]12CCC(=O)O[C@H]1CCCCO2	> 100 µM (inactive)	> 100 µM (inactive)	> 100 µM (inactive)				> 100 µM (inactive)	> 100 µM (inactive)	> 100 µM (inactive)	> 100 µM (inactive)	> 100 µM (inactive)	> 100 µM (inactive)	> 100 µM (inactive)	> 100 µM (inactive)	> 100 µM (inactive)	> 100 µM (inactive)	> 100 µM (inactive)	> 100 µM (inactive)	> 100 µM (inactive)	> 100 µM (inactive)
Cc1ccc(S(=O)(=O)Nc2nc3ccccc3c(=O)n2C2CCCCC2)cc1	> 100 µM (inactive)	> 100 µM (inactive)	> 100 µM (inactive)	51.8 µM (inactive)	> 100 µM (inactive)	> 100 µM (inactive)	> 100 µM (inactive)	> 100 µM (inactive)	> 100 µM (inactive)	> 100 µM (inactive)	90.2 µM (inactive)	> 100 µM (inactive)	> 100 µM (inactive)	> 100 µM (inactive)	> 100 µM (inactive)	78.3 µM (inactive)	> 100 µM (inactive)	> 100 µM (inactive)	57.9 µM (inactive)	> 100 µM (inactive)
N#CC(c1ccnc(Cl)n1)c1nc2ccccc2s1 (centres undefined)	3.76 µM (inactive)	3.38 µM (inactive)	3.88 µM (inactive)	6.9 µM (inactive)	4.07 µM (inactive)	4.35 µM (inactive)	3.78 µM (inactive)	15.8 µM (inactive)	20.2 µM (inactive)	9.53 µM (inactive)	3.38 µM (inactive)	3.76 µM (inactive)	10.4 µM (inactive)	3.68 µM (inactive)	19.6 µM (inactive)	2.91 µM (inactive)	25.4 µM (inactive)	3.21 µM (inactive)	1.17 µM (inactive)	3.03 µM (inactive)
Cc1ccc(S(=O)(=O)N(CC(O)COc2ccccc2)c2c(F)cccc2F)cc1 (centres undefined)	15.5 µM (inactive)	15.8 µM (inactive)	16.9 µM (inactive)	13.2 µM (inactive)	15.7 µM (inactive)	33.3 µM (inactive)	14.3 µM (inactive)	19.6 µM (inactive)	23.3 µM (inactive)	38 µM (inactive)	15.7 µM (inactive)	21.9 µM (inactive)	14.7 µM (inactive)	15.7 µM (inactive)	24.9 µM (inactive)	17.9 µM (inactive)	21.1 µM (inactive)	18.5 µM (inactive)	29.4 µM (inactive)	21.8 µM (inactive)
C[C@H]1CC[C@H]([C@@H](C)[C@H]2[C@@H](O)C[C@H]3[C@@H]4CC[C@H]5C[C@@H](O)CC[C@]5(C)[C@H]4CC[C@]23C)NC1	24.2 µM (inactive)	21.3 µM (inactive)	23.6 µM (inactive)	15.8 µM (inactive)	13.9 µM (inactive)	23.5 µM (inactive)	12.4 µM (inactive)	17.4 µM (inactive)	16.3 µM (inactive)	19.3 µM (inactive)	15.8 µM (inactive)	18.1 µM (inactive)	19.6 µM (inactive)	21.9 µM (inactive)	16.2 µM (inactive)	21.2 µM (inactive)	18.6 µM (inactive)	15.9 µM (inactive)	4.45 µM (inactive)	6.34 µM (inactive)
COc1ccc(NC2=NCCO2)c2c1CCCC2	29.2 µM (inactive)	35.6 µM (inactive)	33.2 µM (inactive)	58.7 µM (inactive)	53.5 µM (inactive)	39.4 µM (inactive)	26.7 µM (inactive)	61.1 µM (inactive)	47.8 µM (inactive)	64.9 µM (inactive)	25.8 µM (inactive)	21.9 µM (inactive)	28.2 µM (inactive)	27.4 µM (inactive)	51.2 µM (inactive)	43.8 µM (inactive)	31.9 µM (inactive)	18.4 µM (inactive)	15.5 µM (inactive)	29.2 µM (inactive)
COc1ccc(-c2[nH]c(-c3ccc(OC)cc3)c(-c3ccccn3)c2-c2ccccn2)cc1	48.1 µM (inactive)	> 100 µM (inactive)	63.1 µM (inactive)		33.7 µM (inactive)	68.7 µM (inactive)	44 µM (inactive)	82 µM (inactive)	72.3 µM (inactive)	> 100 µM (inactive)	43.8 µM (inactive)	85.7 µM (inactive)	26 µM (inactive)	42.7 µM (inactive)	> 100 µM (inactive)	89.3 µM (inactive)	13.6 µM (inactive)	> 100 µM (inactive)	32.4 µM (inactive)	34.6 µM (inactive)
COc1ccc2oc(OC)c(CC=C(C)C)c(=O)c2c1C	> 100 µM (inactive)	> 100 µM (inactive)	> 100 µM (inactive)		> 100 µM (inactive)	> 100 µM (inactive)	> 100 µM (inactive)	> 100 µM (inactive)	> 100 µM (inactive)	> 100 µM (inactive)	> 100 µM (inactive)	> 100 µM (inactive)	> 100 µM (inactive)	> 100 µM (inactive)	> 100 µM (inactive)	> 100 µM (inactive)	> 100 µM (inactive)	> 100 µM (inactive)	> 100 µM (inactive)	> 100 µM (inactive)
C=CCOc1ccc(C(=N/NC(=O)c2ccccc2)/N=N/c2ccc([N+](=O)[O-])cc2)cc1OC	> 100 µM (inactive)	> 100 µM (inactive)	> 100 µM (inactive)	> 100 µM (inactive)	> 100 µM (inactive)	> 100 µM (inactive)	> 100 µM (inactive)	> 100 µM (inactive)	> 100 µM (inactive)	> 100 µM (inactive)	> 100 µM (inactive)	> 100 µM (inactive)	> 100 µM (inactive)	> 100 µM (inactive)	77.4 µM (inactive)	> 100 µM (inactive)	74.1 µM (inactive)		93.3 µM (inactive)	> 100 µM (inactive)
CN(C)[C@@H]1C(O)=C(C(=O)NCNc2nc3[nH]nnc3c(=O)[nH]2)C(=O)[C@@]2(O)C(O)=C3C(=O)c4c(O)cccc4[C@@](C)(O)[C@H]3C[C@@H]12	0.557 µM (active)	0.393 µM (active)	0.641 µM (active)	8.63 µM (inactive)	0.358 µM (active)	86.1 µM (inactive)	3.42 µM (inactive)	92 µM (inactive)	12.4 µM (inactive)	33.5 µM (inactive)	2.15 µM (inactive)	1.73 µM (inactive)	23.6 µM (inactive)	66.1 µM (inactive)	1.27 µM (inactive)	0.883 µM (active)	64 µM (inactive)	0.723 µM (active)	0.231 µM (active)	0.312 µM (active)
O=C(O)CCC(=O)c1ccc2ccc3cccc4ccc1c2c34	> 100 µM (inactive)	> 100 µM (inactive)	27.7 µM (inactive)	> 100 µM (inactive)	94.6 µM (inactive)	92.9 µM (inactive)	67.9 µM (inactive)	67.5 µM (inactive)	58.2 µM (inactive)	> 100 µM (inactive)	48.5 µM (inactive)	49 µM (inactive)	44.9 µM (inactive)	54.3 µM (inactive)	> 100 µM (inactive)	64 µM (inactive)	21.4 µM (inactive)	> 100 µM (inactive)	23 µM (inactive)	45.7 µM (inactive)
